These results are taken from US20070134744A1, “Epothilone resistant cell lines” (priority 2000, published 2007).

Entries after “also recorded” stand apart in the source; their conditions may differ.

The subject of assay [1] is KB-8511 cells. The format is cell-based, human. The settings on record: for RF (resistance factor: IC50 resistant cell line / IC50 parental KB-31): KB-8511 (Colch selected), 72 hrs, average of three experiments; for resistance profile in words: KB-8511 vs parental KB-31. The protocol: (§1) Data in Table 4 are gathered according to the following methods: Cells (1×10^3) are seeded in 96-well plates and allowed to adhere for 24 hrs. Compounds are then added as two-fold serial dilutions and incubation continued for an additional 72 hrs. Cell numbers at the beginning and at the end of the experiment are estimated by methylene blue staining of cellular protein mass according to conventional methods. The net mass increase of vehicle-treated cells is set as 100% growth. The IC50 is determined as the drug concentration that leads to half-maximal growth inhibition compared to the control. The resistance factor (RF) for a particular drug is calculated by dividing the IC50 determined on the resistant cell line by that determined on the parental KB-31 cells. Data are presented as average±standard deviation (SD) of three separate experiments, except na=not applicable (n<3). Colchicine-selected KB-8511 cells overexpressing P-glycoprotein served as a reference for the classical multi-drug-resistant phenotype.

The test system of assay [2] is 315/sc5.9 cells. The format is cell-based, human. The settings on record: for RF (resistance factor: IC50 resistant cell line / IC50 parental KB-31): 315/sc5.9 (EpoB selected), 72 hrs, average of three experiments. The method, then:
(§2) Anti-proliferative assays are performed basically as described (Meyer et al., Int. J. Cancer 43:851 (1989)). Briefly, cells are seeded at 1.5×10^3 cells/well into 96-well microtiter plates and allowed to adhere by incubation overnight. Compounds are added in serial dilutions on day 1. The plates are then incubated for an additional 3 days, after which the cells are fixed with 3.3% v/v glutaraldehyde, washed with water and stained with 0.05% w/v methylene blue according to conventional methods. After washing, the dye is eluted with 3% HCl and the optical density measured at 665 nm with a SpectraMax Plus (Molecular Devices, Sunnyvale, Calif.) according to manufacturers instructions. IC50 values are determined by mathematical curve-fitting using the SoftPro2.6.1 program (Molecular Devices, Sunnyvale, Calif.) using the formula (OD treated−OD start)/(OD control−OD start)×100. […] IC50 determinations with the cell line 298/D4/40 are performed in the presence of 40 nM epothilone A.
as §1

Assay [3] has as its system 298/D4/40 cells. The format is cell-based, human. The settings on record: for RF (resistance factor: IC50 resistant cell line / IC50 parental KB-31): 298/D4/40 (EpoA selected), 72 hrs, in the presence of 40 nM epothilone A; for resistance profile in words: 298/D4/40 vs parental KB-31. The protocol: as §2, §1
For assay [4], the system named is 297/C5/0 cells. The assay is classed as cell-based, human. The settings on record: for RF (resistance factor: IC50 resistant cell line / IC50 parental KB-31): 297/C5/0 (EpoA selected), 72 hrs, average of three experiments; for resistance profile in words: 297/C5/0 vs parental KB-31. The method, then:
as §2, §1

The subject of assay [5] is EA40 cells. Briefly: MTS growth inhibition assay. The assay is classed as cell-based. The settings on record: for IC50: EA40 cells. The method, then: Growth inhibition may be analyzed using conventional methods, for example a MTS assay (PROMEGA, Wis.) may be used. In this assay approximately 4000 cells per well are seeded in 96 well plates in MEM supplemented with 10% fetal calf serum and incubated at 37° C. in 5.0% CO2. After 24 hours, dilutions of drug (concentration range used is between 1 nM and 1000 nM) are added and cells are allowed to incubate with drug for an additional 72 hours. The MTS reagent mixed with PMS (MTS:PMS 20:1 according to manufacturer's instructions) is then added and absorbance quantitated using a Thermomax microplate reader system according to conventional methods (Molecular Devices, Sunnyvale, Calif.). […] Six assays per drug per plate are performed. […]
(§3) As such, epothilone resistant cells would have some degree of cross-resistance to other P-gp substrates that could be reversed by P-gp inhibitors. To investigate this possibility, the cytotoxicity of the P-gp substrates, vincristine, doxorubicine and vinblastine is determined against epothilone A resistant cells using the MTS assay. […] When EA20 and resistant MDA/T0.3 cells are incubated with TAXOL® or epothilone A in the presence of [3′-Desoxy-3′-oxo-MeBmt]^1-[Val]^2-Ciclosporin (PSC-833; a P-gp inhibitor which is disclosed in U.S. Pat. No. 5,525,590), the resistance of MDA/T0.3 cells to TAXOL® is reversed but no effect on the resistance of EA20 to epothilone A is observed.
In general terms: Tetrazolium assays rely on reduction of a dye to a coloured formazan, in cell work by metabolically active cells.

Assay [6] relates to 298/D4/40 cells. Briefly: Support of growth of epothilone A-dependent cells. The settings on record: replacing epothilone A. The format is cell-based, human. The protocol:
The epothilone resistant cell lines, EpoA320-80C, EpoA320/ND, 298/D4/40, 297/C5/0 and 315/sc5.9 are generated as disclosed above. […] A subclone, 298/D4/40, is adapted to grow in the presence of 40 nM epothilone A administered twice weekly (i.e. at every medium change). […] Furthermore, when 298/D4/40 cells are deprived of epothilone A, they growth arrest in the G2/M phase of the cell cycle and eventually die by apoptosis. […] Thus, this cell line could be employed in a drug screen, in which compounds with a potential microtubule-stabilizing mechanism could be identified by virtue of supporting the growth of epothilone A-deprived 298/D4/40 cells (see below). Nevertheless, upon prolonged incubation in the absence of epothilone A, we are able to isolate a subline that is still partially resistant to epothilone A, but has lost the drug-dependent phenotype of 298/D4/40, likely due to a cornpensating mutation. A subclone of this cell line, 297/C5/0, is used for further analyses.
Potential hits would be those that support the growth of 298/D4/40 cells similar to epothilone A (or paclitaxel) that could be included as a positive control in this assay.

Assay [7] deals with EA20 cells. Briefly: MTS growth inhibition assay. The format is cell-based. The settings on record: MTS, 72 hours drug, Table 1. The protocol: (§4) Growth inhibition may be analyzed using conventional methods, for example a MTS assay (PROMEGA, Wis.) may be used. In this assay approximately 4000 cells per well are seeded in 96 well plates in MEM supplemented with 10% fetal calf serum and incubated at 37° C. in 5.0% CO2. After 24 hours, dilutions of drug (concentration range used is between 1 nM and 1000 nM) are added and cells are allowed to incubate with drug for an additional 72 hours. The MTS reagent mixed with PMS (MTS:PMS 20:1 according to manufacturer's instructions) is then added and absorbance quantitated using a Thermomax microplate reader system according to conventional methods (Molecular Devices, Sunnyvale, Calif.). […] Six assays per drug per plate are performed.
(§5) Thus, at least two potential mechanisms of epothilone A resistance may exist—a lower resistance mechanism that is cross-resistant to TAXOL® and a higher, epothilone A specific resistance mechanism.

In assay [8] the test system is EA10 cells. In words: MTS growth inhibition assay. The assay is classed as cell-based. The settings on record: MTS, 72 hours drug, Table 1. The protocol: as §4, §5
Assay [9] concerns EA60 cells. Briefly: MTS growth inhibition assay. The assay is classed as cell-based. The settings on record: MTS, 72 hours drug, Table 1. The method, then:
as §4, §5

Assay [10] deals with MDA-MB-435 cells. In words: MTS growth inhibition assay. The assay is classed as cell-based. The method, then: as §4, §5
Assay [11] concerns EA150 cells. Briefly: MTS growth inhibition assay. The format is cell-based. The settings on record: for IC50: MTS, 72 hours drug, Table 1. The method, then: as §4, §5
The test system of assay [12] is EA20 cells. In words: Reversal of resistance by P-gp inhibitor (MTS assay). The assay is classed as cell-based. The settings on record: EA20 cells incubated with epothilone A in the presence of PSC-833. The method, then: as §4
(§6) As such, epothilone resistant cells would have some degree of cross-resistance to other P-gp substrates that could be reversed by P-gp inhibitors. To investigate this possibility, the cytotoxicity of the P-gp substrates, vincristine, doxorubicine and vinblastine is determined against epothilone A resistant cells using the MTS assay. […]

Assay [13] relates to MDA/T0.3 cells. The description is as above. The assay is classed as cell-based. The settings on record: MDA/T0.3 cells incubated with TAXOL in the presence of PSC-833. The protocol:
as §4, §6

In assay [14] the test system is MDA/T0.3 cells. In words: MTS growth inhibition assay. The assay is classed as cell-based. The settings on record: MDA/T0.3 cells, P-gp substrates; Table 2; read-out: IC50. The method, then: Growth inhibition may be analyzed using conventional methods, for example a MTS assay (PROMEGA, Wis.) may be used. In this assay approximately 4000 cells per well are seeded in 96 well plates in MEM supplemented with 10% fetal calf serum and incubated at 37° C. in 5.0% CO2. […] The MTS reagent mixed with PMS (MTS:PMS 20:1 according to manufacturer's instructions) is then added and absorbance quantitated using a Thermomax microplate reader system according to conventional methods (Molecular Devices, Sunnyvale, Calif.). […] Six assays per drug per plate are performed.
as §3
MDA/T0.3 is a clonal subline of MDA-MB-435 cells selected by increasing exposure of MDA-MB-435 cells to TAXOL®. MDA/T0.3 cells express high levels of P-glycoprotein and are resistant to a variety of chemically and functionally unrelated compounds. MDA/T0.3 cells could be sensitized to a variety of cytotoxic agents by treatment with the P-glycoprotein reversing agent PSC-833.

The test system of assay [15] is KB-8511 cells. The settings on record: cited from earlier work.

For orientation: IC50 means the concentration that gives 50% inhibition.

For `C/C(=C\c1csc(C)n1)[C@@H]1C[C@@H]2O[C@]2(C)CCC[C@H](C)[C@H](O)[C@@H](C)C(=O)C(C)(C)[C@@H](O)CC(=O)O1` [Epothilone B, epothilone B], the “RF (resistance factor: IC50 resistant cell line / IC50 parental KB-31)” value was found to be 0.9 in assay [1], 3.1 in assay [2], 9.2 in assay [3] and 7.7 in [4]. In addition, the “resistance profile in words” value in assay [1] is given as “retain full activity”; in [3] it was “either partially or fully cross-resistant”; in assay [4], “either partially or fully cross-resistant”; in assay [11], “very little resistance”. Also, the resistance in assay [2] (315/sc5.9 vs parental KB-31) was 3.1 fold. Further, the half-inhibitory concentration (IC50) amounted to 8 ± 3.5 nM in assay [5] (MTS, 72 hours drug, Table 1); 6 ± 2.9 nM in assay [7]; 3 ± 1.4 nM in assay [8]; 10 ± 4.2 nM in [9]; 2 ± 0.8 nM in assay [10] (MTS, 72 hours drug, Table 1); 15 ± 3.1 nM in [11]. In addition, the “support of growth of epothilone A-dependent cell line” value in assay [6] is given as “able to substitute for epothilone A”.

On to `C/C=C/C[C@@H](C)C(=O)[C@H]1C(=O)N[C@@H](C(C)C)C(=O)N(C)CC(=O)N(C)[C@@H](CC(C)C)C(=O)N[C@@H](C(C)C)C(=O)N(C)[C@@H](CC(C)C)C(=O)N[C@@H](C)C(=O)N[C@H](C)C(=O)N(C)[C@@H](CC(C)C)C(=O)N(C)[C@@H](CC(C)C)C(=O)N(C)[C@@H](C(C)C)C(=O)N1C` [PSC-833, [3′-Desoxy-3′-oxo-MeBmt]^1-[Val]^2-Ciclosporin], for which the “effect on resistance to epothilone A” value in assay [12] is given as “no effect”. Besides, the “effect on resistance to TAXOL” value in assay [13] is reported as “reversed”.

With `CC(=O)O[C@H]1C(=O)[C@@]2(C)[C@H]([C@H](OC(=O)c3ccccc3)[C@]3(O)C[C@H](OC(=O)[C@H](O)[C@@H](NC(=O)c4ccccc4)c4ccccc4)C(C)=C1C3(C)C)[C@]1(OC(C)=O)CO[C@@H]1C[C@@H]2O` [Paclitaxel, paclitaxel], the IC50 was determined as 540 ± 100 nM in [14]; 23 ± 4 nM in [5] (MTS, 72 hours drug, Table 1); 21 ± 3 nM in assay [5] (P-gp substrates, Table 2); 22 ± 4 nM in assay [7]; 13 ± 3.1 nM in [8]; 27 ± 3.1 nM in [9]. Also, the IC50 in [10] (Homo sapiens, MTS, 72 hours drug, Table 1) came out at 7.5 ± 3 nM; in assay [10] (Homo sapiens, P-gp substrates, Table 2), 7.5 ± 3 nM; in assay [11] it was 34 ± 2.6 nM. Moreover, the “RF (resistance factor: IC50 resistant cell line / IC50 parental KB-31)” value came to 209.6 in assay [1], 1.4 in assay [2], 200.1 in [3] and 98.3 in assay [4]. Also, the “resistance profile in words” value in assay [1] was “resistant”; in assay [2] (315/sc5.9 vs parental KB-31), “marginal cross-resistance”; in assay [3], “either partially or fully cross-resistant; also recorded: full cross-resistance”; in assay [4], “either partially or fully cross-resistant; also recorded: full cross-resistance”; in assay [5] (EA40 vs MDA-MB-435 / EA150), “equally resistant”. In [6], the “support of growth of epothilone A-dependent cell line” value is given as “able to substitute for epothilone A”.

As to `COc1cc2c(c(OC)c1OC)-c1ccc(OC)c(=O)cc1[C@@H](NC(C)=O)CC2` [colchicine], the “relative resistance compared to KB-31 cells” value in assay [15] is reported as approximately 40 fold.
